Experimental findings from patent publication US20200270588A1, “GLUCOSYL TRANSFERASE POLYPEPTIDES AND METHODS OF USE” (Syngenta Participations AG, priority 2017, published 2020) are described below.

Holding throughout (type): biochemical
The target in experiment [1] is T1, SEQ ID NO 19, mutant of Zea mays bx9 glucosyl transferase (Zea mays, UniProt B4G072, A281K/A334K/L194V/M279F/S117V).
T1 construct: His tag (C); made in house
Nature of the experiment: UDP-Glo glucosyl transferase assay, purified enzyme. Particulars: herbicide mM: V 0.300, VI 0.250, VII 0.210; IV, VIII, XI, XXI, XX, XVIII, XVI, XV, XIV 0.200; others 1.000. The method, then: (§1) Glucosyl transferase activity is assayed via measurement of acceptor substrate-dependent production of UDP from ultrapure UDP-glucose using the Promega UDP-Glo™ method and according to the manufacturer's instructions. Assays are run in 96 well microtiter plates.
(§2) Enzyme, typically at a stock concentration of ˜2 mg/ml is diluted to an appropriate concentration in 50 mM K^+ Hepes buffer at pH7.5 containing 0.5 mg/mL bovine serum albumin (BSA) and 5 ul aliquots of this diluted enzyme added to each well of a Perkin Elmer white ½ area 96 well plate. […] Assays are run for an appropriate time (usually 10 to 60 min) so that the amount of UDP formed lies within the most nearly linear part of the UDP standard curve and are stopped with the addition and mixing of 25 ul UDP-Glo™ detection reagent (prepared as described below). Plates are then incubated at room temperature for 60 minutes and then read in a luminescence plate reader (Perkin Elmer Envision 2130 Multilabel Reader). A UDP standard curve is run alongside each set of assays and reagent blank control assays run with DMSO in place of test herbicide. Typically, 300 pmol of UDP corresponds to a Relative Luminescence Unit (RLU) reading of about 1.5E7 and the response curve between 0 and 600 pmol is fitted to a polynomial function (see for example FIG. 2).
(§3) The UDP-Glo™ reagents are made up and used according to the manufacturer's instructions. Thus, Nucleotide Detection Buffer and ATP are combined to make nucleotide detection reagent (NDR) dispensed into aliquots and frozen to be freshly thawed before use. […]
(§4) Table 13 summarizes the results obtained from assays, run as described in Example 1, using a variety of alcohol and aminal PSII herbicides as substrates of the Zea mays bx9 w/t (i.e. C-terminally his tagged SEQ ID no 1) and various mutants of the same, selected from SEQ ID NO: 16-30). All of these proteins were C-terminally his-tagged, expressed and purified as described in Example 1. Assays were run and analyzed as described in example 1. It is seen that various of the mutations herein and combinations thereof led to significant improvements (over the w/t bx9 protein) in catalytic activity versus various of the herbicides and that these improvements are often of sufficient magnitude to be useful for conferring improved herbicide tolerance upon crop. This is especially the case given that even the unmutated w/t bx9 enzyme which has only modest glucosyl transferase activity (for example against compounds V and VI) was nevertheless adequately active to confer significant herbicide tolerance in the glass house (as shown in example 9) even without mutational improvement. It is also seen that particular mutations can lead to very much improved activity in respect of some chemistries but not to others but that, overall, there is at least one variant within the scope of the current invention that provides significant and useful improvement in tolerance to each of the chemistries tested.

The target of experiment [2] is T2, SEQ ID NO 23, mutant of Zea mays bx9 glucosyl transferase (Zea mays, UniProt B4G072, A334K/F21Y/L194C/M279F/S117V).
T2 construct: His tag (C); made in house
T2 sequence (B4G072 whole entry F21Y/S117V/L194C/M279F/A334K): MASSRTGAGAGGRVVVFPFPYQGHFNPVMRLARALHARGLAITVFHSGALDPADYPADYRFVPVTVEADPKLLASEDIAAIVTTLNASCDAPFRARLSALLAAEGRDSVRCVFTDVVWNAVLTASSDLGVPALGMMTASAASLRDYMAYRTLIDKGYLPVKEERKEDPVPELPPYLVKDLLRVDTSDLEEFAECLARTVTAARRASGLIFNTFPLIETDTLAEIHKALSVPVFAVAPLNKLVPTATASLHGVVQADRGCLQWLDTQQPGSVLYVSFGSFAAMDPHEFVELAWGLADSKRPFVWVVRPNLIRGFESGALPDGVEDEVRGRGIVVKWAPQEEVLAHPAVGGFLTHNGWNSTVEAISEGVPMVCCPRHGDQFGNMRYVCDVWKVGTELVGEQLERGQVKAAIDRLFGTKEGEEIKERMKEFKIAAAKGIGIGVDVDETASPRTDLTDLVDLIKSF
Described as above. The following applies: lower block, concentration printed only in upper block: V 0.300, VII 0.210; IV, VIII, XI, XXI, XX, XVIII, XVI, XV, XIV 0.200; others 1.000 mM. The procedure:
as §1, §2, §3, §4

Experiment [3] addresses T3, SEQ ID NO 18, mutant of Zea mays bx9 glucosyl transferase (Zea mays, UniProt B4G072, A281K/A334K/F21Y/M279F/S117V).
T3 construct: His tag (C); made in house
Described as above. Particulars: herbicide mM: V 0.300, VI 0.250, VII 0.210; IV, VIII, XI, XXI, XX, XVIII, XVI, XV, XIV 0.200; others 1.000. The procedure: as §1, §2, §3, §4

Experiment [4] has as its target T4, SEQ ID NO 21, mutant of Zea mays bx9 glucosyl transferase (Zea mays, UniProt B4G072, A334K/F21Y/L194V/M279F/S117V).
T4 construct: His tag (C); made in house
The experiment is described as above. The following applies: lower block, concentration printed only in upper block: V 0.300, VII 0.210; IV, VIII, XI, XXI, XX, XVIII, XVI, XV, XIV 0.200; others 1.000 mM. The procedure:
as §1, §2
(§5) The UDP-Glo™ reagents are made up and used according to the manufacturer's instructions. Thus, Nucleotide Detection Buffer and ATP are combined to make nucleotide detection reagent (NDR) dispensed into aliquots and frozen to be freshly thawed before use.
(§6) Km and kcat values in respect of UDP-glucose are derived by carrying out experiments to measure initial rates over a suitable range of concentrations of UDP glucose out at a fixed near saturating concentration of acceptor substrate. Best fit values of kcat, Km and kcat/Km are obtained by direct fitting of the data to the Michaelis-Menten equation using Graphpad Prism™ software.
(§7) Variants of C-terminally his tagged SEQ ID No:1 (w/t bx9 from Zea mays), exemplified as SEQ ID 16-30, were cloned, purified and assayed as described in Example 1. FIG. 4 depicts the data from some experiments to determine the kinetic parameters of some of these variants in respect of herbicide VI and table 12 summarizes the estimates of kinetic parameters obtained from further such experiments in respect of a range of herbicides.
as §4

Experiment [5] has as its target T5, SEQ ID NO 17, zmBX9 S117V, M279F, A334K mutant (Zea mays, UniProt B4G072, A334K/M279F/S117V).
T5 construct: polypeptides were the C-terminally his-tagged; His tag (C); made in house
The description is as above. Particulars: herbicide mM: V 0.300, VI 0.250, VII 0.210; IV, VIII, XI, XXI, XX, XVIII, XVI, XV, XIV 0.200; others 1.000. The method, then: as §1, §2, §5, §6, §7, §4

The target of experiment [6] is T6, SEQ ID NO 22, mutant of Zea mays bx9 glucosyl transferase (Zea mays, UniProt B4G072, A334K/F21Y/M279F/S117V/T220P).
T6 construct: His tag (C); made in house
T6 sequence (B4G072 whole entry F21Y/S117V/T220P/M279F/A334K): as the sequence (B4G072 whole entry F21Y/S117V/L194C/M279F/A334K) above, with C194L, T220P counted along it
The experiment is described as above. Particulars: lower block, concentration printed only in upper block: V 0.300, VII 0.210; IV, VIII, XI, XXI, XX, XVIII, XVI, XV, XIV 0.200; others 1.000 mM. The method, then:
as §1, §2, §5, §6, §7, §4

The target of experiment [7] is T7, SEQ ID NO 20, mutant of Zea mays bx9 glucosyl transferase (Zea mays, UniProt B4G072, A281K/A334K/F21Y/L194V/M279F/S117V).
T7 construct: His tag (C); made in house
T7 sequence (B4G072 whole entry F21Y/S117V/L194V/M279F/A281K/A334K): as the sequence (B4G072 whole entry F21Y/S117V/L194C/M279F/A334K) above, with C194V, A281K counted along it
The following applies: lower block, concentration printed only in upper block: V 0.300, VII 0.210; IV, VIII, XI, XXI, XX, XVIII, XVI, XV, XIV 0.200; others 1.000 mM. The procedure:
as §1
as §2, with “herbicide.” for “herbicide. Typically, 300 pmol of UDP corresponds to a Relative Luminescence Unit (RLU) reading of about 1.5E7 and the response curve between 0 and 600 pmol is fitted to a polynomial function (see for example FIG. 2).”
as §5, §6
All of these proteins were C-terminally his-tagged, expressed and purified as described in Example 1. Assays were run and analyzed as described in example 1.

For experiment [8], the target named is T8, Zea mays bx9 glucosyl transferase (C-terminally his tagged SEQ ID NO: 1) (Zea mays, UniProt B4G072).
T8 construct: His tag (C); made in house; host or cells: E. coli BL21 (DE3), pET24a
T8 sequence (B4G072 1-462): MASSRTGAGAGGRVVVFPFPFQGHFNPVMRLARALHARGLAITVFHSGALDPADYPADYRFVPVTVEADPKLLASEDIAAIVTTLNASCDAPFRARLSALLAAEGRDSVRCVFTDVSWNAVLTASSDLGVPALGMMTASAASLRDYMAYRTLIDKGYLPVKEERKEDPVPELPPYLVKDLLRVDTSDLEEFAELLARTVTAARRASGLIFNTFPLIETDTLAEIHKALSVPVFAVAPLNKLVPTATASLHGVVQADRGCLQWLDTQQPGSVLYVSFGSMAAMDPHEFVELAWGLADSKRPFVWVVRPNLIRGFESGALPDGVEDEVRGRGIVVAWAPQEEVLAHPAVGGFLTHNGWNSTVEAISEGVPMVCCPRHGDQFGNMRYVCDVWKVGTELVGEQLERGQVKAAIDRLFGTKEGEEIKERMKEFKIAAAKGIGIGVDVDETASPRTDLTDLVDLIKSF
The experiment in a line: UDP-Glo glucosyl transferase assay, purified enzyme. The following applies: herbicide mM: V 0.300, VI 0.250, VII 0.210; IV, VIII, XI, XXI, XX, XVIII, XVI, XV, XIV 0.200; others 1.000. The method, then:
as §1, §2, §5, §6

T3 sequence (B4G072 whole entry F21Y/S117V/M279F/A281K/A334K): as the sequence (B4G072 whole entry F21Y/S117V/L194C/M279F/A334K) above, with C194L, A281K counted along it
T5 sequence (B4G072 whole entry S117V/M279F/A334K): as the sequence (B4G072 whole entry F21Y/S117V/L194C/M279F/A334K) above, with Y21F, C194L counted along it
T1 sequence (B4G072 whole entry S117V/L194V/M279F/A281K/A334K): as the sequence (B4G072 whole entry F21Y/S117V/L194C/M279F/A334K) above, with Y21F, C194V, A281K counted along it
T4 sequence (B4G072 whole entry F21Y/S117V/L194V/M279F/A334K): as the sequence (B4G072 whole entry F21Y/S117V/L194C/M279F/A334K) above, with C194V counted along it

On to `C[C@@H]1C(O)N(c2noc(C(C)(C)C)c2C#N)C(=O)[C@@H]1C` (stereo partly shown) [XIII], for which the Activity in experiment [1] turned out to be 0.095 pmol/sec/pmol enzyme; in experiment [2] it was 0.034 pmol/sec/pmol enzyme; in experiment [3], 0.051 pmol/sec/pmol enzyme; in experiment [4], 0.040 pmol/sec/pmol enzyme; in experiment [5], 0.020 pmol/sec/pmol enzyme; in experiment [6], 0.073 pmol/sec/pmol enzyme. For the same compound, the Activity in experiment [7] is 0.143 pmol/sec/pmol enzyme; in experiment [8], −0.001 pmol/sec/pmol enzyme.

For `C[C@@H]1C(O)N(c2cc(C(C)(C)C)on2)C(=O)[C@@H]1C` (stereo partly shown) [VIII], the Activity came to 0.077 pmol/sec/pmol enzyme in experiment [1]; 0.017 pmol/sec/pmol enzyme in experiment [2]; 0.124 pmol/sec/pmol enzyme in experiment [3]; 0.016 pmol/sec/pmol enzyme in experiment [4]; 0.008 pmol/sec/pmol enzyme in experiment [5]; 0.061 pmol/sec/pmol enzyme in experiment [6]. For the same compound, the Activity is given as 0.145 pmol/sec/pmol enzyme in experiment [7] and −0.002 pmol/sec/pmol enzyme in experiment [8].

`C[C@H]1C(=O)N(c2noc(C(C)(C)C)c2C#N)C(O)[C@@H]1C` (stereo partly shown) [XXIII]: the Activity in experiment [1] amounted to 0.072 pmol/sec/pmol enzyme; in experiment [2], 0.021 pmol/sec/pmol enzyme; in experiment [3], 0.089 pmol/sec/pmol enzyme; in experiment [4], 0.034 pmol/sec/pmol enzyme; in experiment [5] it was 0.014 pmol/sec/pmol enzyme; in experiment [6], 0.067 pmol/sec/pmol enzyme. Besides, the Activity in experiment [7] is recorded as 0.119 pmol/sec/pmol enzyme; in experiment [8], −0.003 pmol/sec/pmol enzyme.

With `CC1C(O)N(c2cc(C(F)(F)F)c(Cl)cn2)C(=O)N1C` (stereo not shown) [XIX], the Activity in experiment [1] is on record as 0.363 pmol/sec/pmol enzyme; in experiment [2], 0.207 pmol/sec/pmol enzyme; in experiment [3] it was 0.467 pmol/sec/pmol enzyme; in experiment [4] it was 0.234 pmol/sec/pmol enzyme; in experiment [5], 0.157 pmol/sec/pmol enzyme; in experiment [6] it was 0.315 pmol/sec/pmol enzyme. Besides, the results for the Activity in experiment [7] and in experiment [8] were 0.414 pmol/sec/pmol enzyme and −0.001 pmol/sec/pmol enzyme, respectively.

With `CN1CC(O)N(c2cc(C(C)(C)C)ncn2)C1=O` (stereo not shown) [IV], the Activity in experiment [1] came to 0.053 pmol/sec/pmol enzyme; in experiment [2], 0.023 pmol/sec/pmol enzyme; in experiment [3], 0.145 pmol/sec/pmol enzyme; in experiment [4], 0.008 pmol/sec/pmol enzyme; in experiment [5], 0.019 pmol/sec/pmol enzyme; in experiment [6] it was 0.099 pmol/sec/pmol enzyme. Moreover, the Activity amounted to 0.079 pmol/sec/pmol enzyme in experiment [7] and 0.000 pmol/sec/pmol enzyme in experiment [8].

`C[C@H]1C(O)N(c2cc(C(F)(F)F)ccn2)C(=O)N1C` (stereo partly shown) [XXIV]: the Activity in experiment [1] is 1.358 pmol/sec/pmol enzyme; in experiment [2], 0.816 pmol/sec/pmol enzyme; in experiment [3], 0.982 pmol/sec/pmol enzyme; in experiment [4], 1.154 pmol/sec/pmol enzyme; in experiment [5], 0.528 pmol/sec/pmol enzyme; in experiment [6], 0.908 pmol/sec/pmol enzyme. The Activity was 1.462 pmol/sec/pmol enzyme in experiment [7] and 0.001 pmol/sec/pmol enzyme in experiment [8].

Turning to `CN1CC(O)N(c2cc(C(C)(C)C)c(Cl)nn2)C1=O` (stereo not shown) [III], the Activity in experiment [1] is given as 0.097 pmol/sec/pmol enzyme; in experiment [2], 0.066 pmol/sec/pmol enzyme; in experiment [3] it was 0.170 pmol/sec/pmol enzyme; in experiment [4], 0.020 pmol/sec/pmol enzyme; in experiment [5] it was 0.032 pmol/sec/pmol enzyme; in experiment [6] it was 0.144 pmol/sec/pmol enzyme. The Activity in experiment [7] was found to be 0.144 pmol/sec/pmol enzyme; in experiment [8], 0.001 pmol/sec/pmol enzyme.

Turning to `CN1CC(O)N(c2cc(C(F)(F)F)ncn2)C1=O` (stereo not shown) [XXV], the Activity in experiment [1] stood at 0.581 pmol/sec/pmol enzyme; in experiment [2], 0.449 pmol/sec/pmol enzyme; in experiment [3], 0.553 pmol/sec/pmol enzyme; in experiment [4], 0.170 pmol/sec/pmol enzyme; in experiment [5], 0.106 pmol/sec/pmol enzyme; in experiment [6], 0.458 pmol/sec/pmol enzyme. In addition, the Activity in experiment [7] was determined as 0.758 pmol/sec/pmol enzyme; in experiment [8], 0.000 pmol/sec/pmol enzyme.
